This is an account of results in patent US20220009920A1 (GB005, Inc., priority 2020, published 2022).

Structures are written as SMILES.

What all share (assay): Large panel kinase profiling
What all share (type): biochemical
Holding throughout (conditions): 1 μM test article, 1 mM ATP

For one test, the target named is T1, CLK4 (Homo sapiens, UniProt Q9HAZ1).
T1 construct: AssayQuant Technologies, Inc. (service laboratory)
The procedure: (§1) Large panel kinase profiling was performed at AssayQuant Technologies, Inc. 260 Cedar Hill Street, Marlborough, Mass. 01752 using the PhosphoSens® CSox-Sensor platform using 1 μM test article concentration and 1 mM ATP concentration (www.assayquant.com). Reactions were run in Corning, half-area 96-well, white flat round bottom polystyrene NBS microplates (Cat. #3642) after sealing using optically-clear adhesive film (TopSealA-Plus plate seal, PerkinElmer), applied with either a roller or a paddle to eliminate evaporation and resulting drift. The standard total reaction volume was 50 μL. All experiments were ran at 30° C. to control for fluctuations in ambient temperature. Plates were read from the top in kinetic mode (readings taken every 1 min), monitoring fluorescence intensity with filters using Ex 360 nm and Em 485 nm and a band width of 40 and 20 nm, respectively, and a gain of 80. Data analysis was performed using either Graphpad Prism or Gene Data Screener software.

The target of a further test is T2, GSK3A (Homo sapiens, UniProt P49840).
T2 construct: AssayQuant Technologies, Inc. (service provider)
As for the experimental part: as §1

A further test addresses T3, MYLK4 (Homo sapiens, UniProt Q86YV6).
T3 construct: AssayQuant Technologies, Inc. (assay service)
T3 sequence (Q86YV6 1-388): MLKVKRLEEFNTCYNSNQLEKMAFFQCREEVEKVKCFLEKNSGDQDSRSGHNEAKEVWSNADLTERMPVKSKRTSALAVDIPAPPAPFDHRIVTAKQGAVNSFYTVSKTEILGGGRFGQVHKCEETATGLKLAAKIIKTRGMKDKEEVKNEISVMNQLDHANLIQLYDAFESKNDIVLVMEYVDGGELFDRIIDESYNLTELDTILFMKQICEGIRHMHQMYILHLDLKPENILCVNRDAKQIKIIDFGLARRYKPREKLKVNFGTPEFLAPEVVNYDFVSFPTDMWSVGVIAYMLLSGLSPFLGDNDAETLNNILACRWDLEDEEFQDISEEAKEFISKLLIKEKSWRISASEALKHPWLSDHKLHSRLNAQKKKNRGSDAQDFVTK
As for the experimental part:
as §1

Another test concerns the target BRAF(V599E) (Homo sapiens, UniProt P15056, V600E). As for the experimental part:
as §1

The target of another test is T4, GRK1 (Homo sapiens, UniProt Q15835).
T4 construct: AssayQuant Technologies, Inc. (service provider)
T4 sequence (Q15835 1-563): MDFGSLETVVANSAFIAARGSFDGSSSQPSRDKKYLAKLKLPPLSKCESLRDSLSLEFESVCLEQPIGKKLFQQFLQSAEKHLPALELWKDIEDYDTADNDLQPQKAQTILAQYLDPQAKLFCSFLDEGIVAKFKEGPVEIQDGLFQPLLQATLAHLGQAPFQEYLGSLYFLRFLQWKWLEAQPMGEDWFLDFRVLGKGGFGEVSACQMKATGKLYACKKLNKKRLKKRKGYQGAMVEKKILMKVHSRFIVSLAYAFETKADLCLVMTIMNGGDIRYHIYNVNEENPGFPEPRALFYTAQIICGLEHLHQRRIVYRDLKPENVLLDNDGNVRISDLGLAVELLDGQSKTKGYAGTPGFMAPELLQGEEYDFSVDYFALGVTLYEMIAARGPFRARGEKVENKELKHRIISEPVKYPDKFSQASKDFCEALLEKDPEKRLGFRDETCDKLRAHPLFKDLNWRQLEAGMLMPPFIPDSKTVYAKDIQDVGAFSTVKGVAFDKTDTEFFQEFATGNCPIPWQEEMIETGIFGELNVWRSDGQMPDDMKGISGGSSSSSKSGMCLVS
The procedure: as §1

A further test deals with T5, NEK6 (Homo sapiens, UniProt Q9HC98).
T5 construct: AssayQuant Technologies, Inc. (assay service)
As for the experimental part:
as §1

For the next test, the target named is T6, TSSK1 (Homo sapiens, UniProt Q9BXA7).
T6 construct: AssayQuant Technologies, Inc. (contract laboratory that ran the panel)
T6 sequence (Q9BXA7 1-367): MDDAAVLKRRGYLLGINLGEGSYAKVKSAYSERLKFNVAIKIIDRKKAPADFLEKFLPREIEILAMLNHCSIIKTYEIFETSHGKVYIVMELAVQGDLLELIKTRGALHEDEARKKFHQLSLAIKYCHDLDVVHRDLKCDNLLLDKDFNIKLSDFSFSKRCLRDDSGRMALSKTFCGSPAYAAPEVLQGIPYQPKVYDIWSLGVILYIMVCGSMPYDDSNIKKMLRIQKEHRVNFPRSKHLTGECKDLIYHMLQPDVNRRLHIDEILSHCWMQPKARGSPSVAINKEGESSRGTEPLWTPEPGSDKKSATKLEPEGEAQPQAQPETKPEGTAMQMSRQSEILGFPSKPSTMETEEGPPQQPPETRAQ
The procedure:
as §1

A further test deals with T7, MAP3K2 (Homo sapiens, UniProt Q9Y2U5).
T7 construct: AssayQuant Technologies, Inc. (service provider)
T7 sequence (Q9Y2U5 1-619): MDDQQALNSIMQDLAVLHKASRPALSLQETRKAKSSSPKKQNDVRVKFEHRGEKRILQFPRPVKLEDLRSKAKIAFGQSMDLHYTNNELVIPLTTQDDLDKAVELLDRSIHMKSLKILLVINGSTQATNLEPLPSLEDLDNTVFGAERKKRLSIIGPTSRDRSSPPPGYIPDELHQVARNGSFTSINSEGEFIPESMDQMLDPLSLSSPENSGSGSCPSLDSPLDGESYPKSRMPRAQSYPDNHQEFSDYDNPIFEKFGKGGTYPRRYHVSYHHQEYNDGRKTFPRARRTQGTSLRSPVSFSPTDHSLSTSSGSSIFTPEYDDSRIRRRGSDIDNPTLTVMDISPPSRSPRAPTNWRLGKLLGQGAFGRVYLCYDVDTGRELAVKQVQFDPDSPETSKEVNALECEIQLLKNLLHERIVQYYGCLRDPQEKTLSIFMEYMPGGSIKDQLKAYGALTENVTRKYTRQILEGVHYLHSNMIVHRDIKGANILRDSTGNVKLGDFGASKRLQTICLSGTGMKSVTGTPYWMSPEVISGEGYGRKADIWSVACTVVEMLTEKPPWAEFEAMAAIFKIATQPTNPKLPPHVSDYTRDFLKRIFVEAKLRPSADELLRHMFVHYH
As for the experimental part:
as §1

T1 sequence (Q9HAZ1 whole entry, species assumed): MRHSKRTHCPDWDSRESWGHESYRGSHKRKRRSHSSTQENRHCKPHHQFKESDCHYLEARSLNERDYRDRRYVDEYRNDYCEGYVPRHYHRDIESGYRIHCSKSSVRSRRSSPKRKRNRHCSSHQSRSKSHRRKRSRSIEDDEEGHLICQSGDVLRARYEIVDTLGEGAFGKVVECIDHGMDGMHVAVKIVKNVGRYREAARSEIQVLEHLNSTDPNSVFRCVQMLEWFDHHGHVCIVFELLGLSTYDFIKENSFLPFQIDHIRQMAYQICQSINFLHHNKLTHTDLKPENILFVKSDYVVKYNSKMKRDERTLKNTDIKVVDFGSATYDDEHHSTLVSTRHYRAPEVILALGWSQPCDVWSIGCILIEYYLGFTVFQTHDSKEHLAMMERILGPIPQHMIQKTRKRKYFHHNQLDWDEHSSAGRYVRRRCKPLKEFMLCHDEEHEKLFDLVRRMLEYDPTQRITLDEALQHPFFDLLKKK
T2 sequence (P49840 whole entry, species assumed): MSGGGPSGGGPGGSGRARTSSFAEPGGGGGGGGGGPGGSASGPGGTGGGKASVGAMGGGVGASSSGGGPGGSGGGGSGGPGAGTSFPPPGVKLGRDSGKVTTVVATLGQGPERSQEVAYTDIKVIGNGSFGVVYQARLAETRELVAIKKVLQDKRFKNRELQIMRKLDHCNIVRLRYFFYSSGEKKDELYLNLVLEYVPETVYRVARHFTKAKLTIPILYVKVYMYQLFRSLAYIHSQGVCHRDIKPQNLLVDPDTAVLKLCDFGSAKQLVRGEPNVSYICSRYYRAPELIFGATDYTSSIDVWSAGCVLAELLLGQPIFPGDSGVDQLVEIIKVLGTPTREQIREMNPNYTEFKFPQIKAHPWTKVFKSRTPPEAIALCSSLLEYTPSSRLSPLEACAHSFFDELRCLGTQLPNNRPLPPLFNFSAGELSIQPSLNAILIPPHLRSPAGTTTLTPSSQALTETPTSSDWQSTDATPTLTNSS
Chain of BRAF(V599E) (P15056 whole entry V600E): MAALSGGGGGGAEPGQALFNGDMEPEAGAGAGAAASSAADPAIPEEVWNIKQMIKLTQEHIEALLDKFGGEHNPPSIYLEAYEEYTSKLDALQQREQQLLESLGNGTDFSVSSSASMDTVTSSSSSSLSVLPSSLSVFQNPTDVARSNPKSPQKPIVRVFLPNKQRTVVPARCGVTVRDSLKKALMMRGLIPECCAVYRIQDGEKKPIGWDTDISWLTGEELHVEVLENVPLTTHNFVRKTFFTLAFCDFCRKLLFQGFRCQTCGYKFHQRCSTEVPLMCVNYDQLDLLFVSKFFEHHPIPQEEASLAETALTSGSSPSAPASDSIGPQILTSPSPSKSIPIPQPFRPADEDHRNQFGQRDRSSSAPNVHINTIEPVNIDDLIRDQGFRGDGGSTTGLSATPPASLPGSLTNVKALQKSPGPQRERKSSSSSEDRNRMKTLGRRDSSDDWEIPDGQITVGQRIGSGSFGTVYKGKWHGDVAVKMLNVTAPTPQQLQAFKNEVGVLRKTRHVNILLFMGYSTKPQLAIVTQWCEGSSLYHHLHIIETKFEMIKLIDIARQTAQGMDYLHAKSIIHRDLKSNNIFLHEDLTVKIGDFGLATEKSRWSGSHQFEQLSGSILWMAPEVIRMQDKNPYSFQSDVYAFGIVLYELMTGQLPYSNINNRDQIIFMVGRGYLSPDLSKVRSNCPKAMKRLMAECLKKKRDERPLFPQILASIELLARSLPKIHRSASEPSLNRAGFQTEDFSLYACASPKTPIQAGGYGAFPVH
T5 sequence (Q9HC98 whole entry, species assumed): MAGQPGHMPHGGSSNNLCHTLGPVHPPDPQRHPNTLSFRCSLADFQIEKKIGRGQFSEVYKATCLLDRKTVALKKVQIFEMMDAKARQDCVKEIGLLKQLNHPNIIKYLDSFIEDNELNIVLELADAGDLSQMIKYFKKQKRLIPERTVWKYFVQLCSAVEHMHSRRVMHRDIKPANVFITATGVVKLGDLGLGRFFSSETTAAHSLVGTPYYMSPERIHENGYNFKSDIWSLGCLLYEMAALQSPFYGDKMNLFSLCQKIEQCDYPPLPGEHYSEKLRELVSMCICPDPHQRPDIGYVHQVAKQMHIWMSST

With `C=CC(=O)N1CCCC(c2c(F)cc(C(N)=O)c3[nH]c4c(c23)CCCCC4)C1` (single isomer, unassigned) [Compound 5-6], the inhibition – broadly, the drop in the measured response relative to a control, in per cent – at 1 µM on CLK4 was 12.3%; against GSK3A, 2.9%; on MYLK4, 29.7%; against BRAF(V599E), -13.2%; at GRK1, 16.4%; against NEK6 it was -13.5%. Also, the inhibition at 1 µM against TSSK1 was 7.3%; against MAP3K2 it was -19%.

Regarding `C=CC(=O)N1CCC[C@@H](c2c(F)cc(C(N)=O)c3[nH]c4c(c23)CC2(CC4)CC2)C1` [Compound 6-2, (S)-5-(1-acryloylpiperidin-3-yl)-6-fluoro-1,2,4,9-tetrahydrospiro[carbazole-3,1′-cyclopropane]-8-carboxamide], the inhibition at 1 µM on CLK4 is 6.5%; against GSK3A it was -5.1%; at MYLK4 it was -30.5%; against BRAF(V599E), -4.9%; on GRK1, -46.1%; against NEK6, -5.8%. In addition, the inhibition at 1 µM against TSSK1 is -3%; at MAP3K2, -6.6%.

As for `C=CC(=O)N1CCC[C@@H](c2c(F)cc(C(N)=O)c3[nH]c4c(c23)CCC4)C1` [Compound 10-2, (S)-8-(1-acryloylpiperidin-3-yl)-7-fluoro-1,2,3,4-tetrahydrocyclo-penta[b]indole-5-carboxamide], the inhibition at 1 µM on CLK4 is 2.7%; against GSK3A, -37.7%; against MYLK4, -21.1%; against BRAF(V599E), 4.3%; at GRK1, -1.4%; on NEK6 it was -13.6%. Besides, the inhibition at 1 µM was 14% on TSSK1 and 15.7% at MAP3K2.
